Test results reported in patent publication US10513524B2, “PDE9 inhibitors with imidazo triazinone backbone and imidazo pyrazinone backbone for treatment of peripheral diseases” (H. LUNDBECK A/S, priority 2015, dated 2019).

What was measured:
PDE1 = PDE1 inhibition assay; format: biochemical; settings: 15 nM tritium labelled cAMP, SPA beads, 1 h at room temperature
Experimental: Reactions were initiated by addition of the cyclic nucleotide substrate, and reactions were allowed to proceed for 1 h at room temperature before being terminated through mixing with 20 μL (0.2 mg) yttrium silicate SPA beads (PerkinElmer).

[1] = Blood Brain Barrier penetration (brain-to-plasma distribution); format: in vivo; settings: male CD mice, subcutaneous 10 mg/kg; for Kp at 0.5 h / Kp at 2 h: mouse, brain/plasma, sc; for Brain concentration after 30 minutes / Plasma concentration after 30 minutes / Kp at 0.5 h: 30 min; for Kp at 0.5 h: read-out: Brain/Plasma ratio after 30 minutes; for Brain concentration after 120 minutes / Plasma concentration after 120 minutes / Kp at 2 h: 120 min; for Kp at 2 h: read-out: Brain/Plasma ratio after 120 minutes
Experimental: Male CD mice (20-24 g) were housed pair-wise with free access to food and water for an acclimatization period of 3-7 days before initiation of experiments. Prior to dosing the animals were fasted overnight. During testing, mice were kept in individual cages. The brain-to-plasma distribution was assessed 30 minutes and 2 hours after subcutaneous administration of the test compound at a dose of 10 mg/kg (n=3 at each time point). The dose volume was 10 ml/kg using appropriate vehicle to solubilize each test compound. At the time of sampling, animals were anesthetized with isoflurane and a systemic blood sample collected by cardiac puncture into vacutainers containing sodium heparin as anti-coagulant. The blood was centrifuged at 3500 rpm for 10 minutes at 4° C. to obtain plasma. Following decapitation, brains were dissected out and transferred to pre-weighed vessels followed by tissue weights determination. Plasma and brains were stored at −80° C. until quantitative bioanalysis by LC-MS/MS. Results are expressed as ng/ml for plasma and ng/g for brain samples.

Compound | IC50 (PDE1) [µM] | Brain concentration after 30 minutes [1] | Plasma concentration after 30 minutes [1] | Brain concentration after 120 minutes [1] | Plasma concentration after 120 minutes [1] | Kp at 0.5 h [1] | Kp at 2 h [1]
O=c1[nH]c(CN2CC(Oc3ccncc3)C2)cn2c(-c3ccc(F)cc3)ncc12 [Compound (P1), 3-(4-fluorophenyl)-6-((3-(pyridin-4-yloxy)azetidin-1-yl)methyl)imidazo[1,5-a]pyrazin-8(7H)-one] | 45.1 | 30 min.: 42 ng/mL | 30 min.: 719 ng/mL | 120 min.: 7 ng/mL | 120 min.: 86 ng/mL | 0.06 | 0.08
C[C@@H]1CN(Cc2ncccn2)C[C@H]1c1nc2c(cnn2C2CCOCC2)c(=O)[nH]1 (single isomer, unassigned) [Reference compound, reference compound] | 2.5 | – | – | – | – | – | –
O=c1[nH]c(CN2CC(OCc3ccc(F)cc3)C2)nn2c(C3CCOCC3)ncc12 [Compound (P4)] | – | 30 min.: 125 ng/mL | 30 min.: 3380 ng/mL | 120 min.: 15 ng/mL | 120 min. 352 ng/mL | – | –
O=c1[nH]c(CN2CC(Oc3cccnc3)C2)cn2c(C3CCOCC3)ncc12 [Compound (P2), 6-[3-(pyridin-3-yloxy)-azetidin-1-ylmethyl]-3-(tetrahydropyran-4-yl)-7H-imidazo[1,5-a]pyrazin-8-one] | 5.28 | Below detection | 30 min.: 715 ng/mL | Below detection | 120 min.: 11 ng/mL | – | –
C[C@@H]1CN(Cc2ncccn2)C[C@H]1c1cn2c(C3CCOCC3)ncc2c(=O)[nH]1 (single isomer, unassigned) [Compound (P3, enantiomer 1)] | 3 | 30 min.: 67 ng/mL | 30 min.: 1620 ng/mL | 120 min.: 7 ng/mL | 120 min.: 226 ng/mL | 0.04 | 0.03
